The subject of data set [1] is TGFβ-ALK5-SMAD2/3 signaling pathway in Luc-Smad2/3-NIH3T3 cells. Nature of the data set: In vitro cell luciferase assay in Luc-Smad2/3-NIH3T3 cells stimulated with TGFβ1. The format is cell-based. Conditions: Mus musculus; TGFβ1 4 ng/mL, 2% FBS medium, luciferase chemiluminescence. The protocol: Test compounds: For the compounds of the present disclosure prepared in the above examples, each compound was prepared into 4 mM using DMSO. Then, a 4-fold serial dilution was made to obtain 20000.00 nM, 5000.00 nM, 1250.00 nM, 312.5 nM, 78.125 nM, 19.53 nM, 4.88 nM and 1.22 nM successively.
Luc-Smad2/3-NIH3T3 mouse fibroblasts (engineered to overexpress SMAD2,3-responsive promoter) were provided by a laboratory of China Pharmaceutical University.
Reagents: DMEM, purchased from Invitrogen, US; FBS, purchased from Invitrogen, US; DMSO, purchased from Sigma, US; Glo Lysis Buffer, purchased from Progema, US; Bright-Glo Luciferase assay system, purchased from Promega, US; and TGFβ, purchased from PeproTech, US.
Instruments: MD SpectraMaX M3 multifunctional enzyme reader, purchased from Molecular Devices, US.
Cell recovery: The cells were dissolved by placing in a […] water bath, then transferred to a 15 mL of pre-warmed culture medium, and centrifuged at 1000 rpm for 5 minutes. After the culture medium was discarded, the cells were resuspend in 15 mL of fresh culture medium, transferred to a 10 cm dish, and placed in an incubator at 37° C. with 5% CO2 for culture. After 24 hours, the culture medium for the cells was changed with a fresh culture medium.
Cell passage: The recovered cells were transferred to a 50 mL sterile centrifuge tube and centrifuged at 1000 rpm for 5 minutes. The culture medium was discarded. The evenly dispersed cells was counted, and adjusted to an appropriate cell concentration of 15 mL of fresh culture medium, added to a 10 cm dish, and placed in an incubator at 37° C. with 5% CO2 for culture.
Luc-Smad2/3-NIH3T3 cells were cultured normally in a 10 cm culture dish until the confluence reached 80%-90%. After digestion, they were collected in a 15 mL centrifuge tube, centrifuged at 1000×g for 5 minutes to remove the supernatant, and resuspended with 1 mL of medium, then diluted 10 times and counted. The cells was diluted according to the results from the count, and transferred into a 96-well plate at 4×10^3/cells per well (100 μl of resuspended cells was added in each well).
1-2 mg of the drug was weighed (weighed in advance), and prepared into a 4 mM stock solution using DMSO. After 24 hours, the culture medium was removed. The drug was diluted with 2% FBS culture medium. 100 μl of the 1× drug solution was added to make the final concentration of the drug to be 20000.00 nM, 5000.00 nM, 1250.00 nM, 312.5 nM, 78.125 nM, 19.53 nM, 4.88 nM, and 1.22 nM. TGFβ1 was present in each well at a final concentration of 4 ng/mL, and diluted with 2% FBS culture medium together with the compounds.
The Glo Lysis Buffer and the Bright-glo luciferase assay system as well as the cells were equilibrated to room temperature. After the cell supernatant was removed, the cells were dissolved evenly by adding 100 μl of the Glo Lysis Buffer to each well with shaking slowly, and lysed at room temperature for 5 minutes. After that, to each well, 100 μl of the Bright-glo luciferase assay system was added to incubate the cells for 5 minute at room temperature with shaking for 2 minutes. Then, 180 μl of the supernatant was transferred to a white bottom 96-well plate to detect chemiluminescence signal. The detection condition was 1 s.
2.3 Data processing: Graphpad Prism 5 software was used to perform nonlinear curve fitting and data analysis to obtain IC50 by fitting.

The target of data set [2] is T1, ALK5 (Homo sapiens, UniProt P36897).
T1 construct: purchased Carna 09-141
T1 sequence (P36897 162-503 limits assumed): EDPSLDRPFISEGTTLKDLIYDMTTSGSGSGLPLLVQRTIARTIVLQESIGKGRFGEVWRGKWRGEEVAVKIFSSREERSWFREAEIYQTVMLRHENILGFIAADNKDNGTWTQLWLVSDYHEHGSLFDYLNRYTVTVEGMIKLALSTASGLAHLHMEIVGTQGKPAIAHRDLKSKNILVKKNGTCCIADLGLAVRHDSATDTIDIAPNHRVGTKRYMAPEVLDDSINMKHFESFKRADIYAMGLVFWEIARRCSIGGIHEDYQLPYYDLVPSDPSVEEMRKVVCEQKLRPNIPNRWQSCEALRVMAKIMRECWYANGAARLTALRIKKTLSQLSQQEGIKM
Nature of the data set: In vitro activity against ALK5 kinase (ADP-Glo Kinase Assay). The format is biochemical. The following applies: 28° C. 120 minutes. The protocol:
For the compounds of the present disclosure prepared in the above examples, each compound was prepared into 10 mM with DMSO, and then diluted to 3.333 μM, 1.111 μM, 370 nM, 123 nM, 41 nM, 14 nM, 4.6 nM, 1.5 nM and 0.5 nM successively.
Reagents: ALK5, Cat. No. 09-141, purchased from Carna; p38α, Cat. No. 04-152, purchased from the Carna; TGFβR1 peptides, Cat. No. T36-58, purchased from SignalChem; dimethyl sulfoxide (DMSO), purchased from Sigma, US; EDTA, purchased from Sigma, US; and ADP-Glo Kinase Assay, Cat. No. v9102/3, 1×Kinase buffer (40 mM Tris, pH7.5, 0.10% BSA, 20 mM MgCl2, 1 mM DTT), purchased from Promega, and prepared immediately before use.
2.2.1.1 Preparation of 50-fold compounds: The compounds were prepared into 500 μM, 50-fold concentration as the final concentration 10 μM for detecting the compounds, which was performed as following: into a second well of a 96-well plate, 95 μl of 100% DMSO was added, and then 5 μl of the 10 mM compound solution was added, to prepare a […] compound solution; into other wells, 60 μl of 100% DMSO was added; from the second well, 30 μl of the compound was drawn out and added into a third well; such 3-fold serial dilution was continued successively until 10 dilutions of concentration were made.
The kinase was added to a 1× kinase buffer, to form a 2× enzyme solution. 2.5 μl of the 2× enzyme solution was added to a 384-well reaction plate which already contained 100 nl of 100% DMSO-dissolved compound, to incubate at room temperature for 10 minutes.
FAM labeled peptides and ATP were added to the 1× kinase buffer, to form a 2× substrate solution. 2.5 μl of the 2× substrate solution was added to the 384-well reaction plate.
The 384-well plate was incubated at 28° C. for 120 minutes.
2.5.1 An ADP-Glo reagent was equilibrated to room temperature.
2.5.2 5 μl of the reaction solution was transferred into a reaction well at another new 384-well plate.
2.5.3 5 μl of the ADP-Glo reagent was transferred into the reaction well at the 384-well plate to stop the reaction.
2.5.4 An incubation was performed at 28° C. for 120 minutes.
2.5.5 10 μl of a kinase detection reagent was transferred into each reaction well, shaken for 1 minute, and was allowed to stand for 30 minutes at room temperature.
The luminescence value of the sample was read from Envision.
2.7.1 Luminescence reading data were copied from the Envision program.
2.7.2 The values of the luminescence reading were converted into the percent inhibition by the following formula.
Percent inhibition=(max−sample RLU)/(max−min)×100, where “min” stands for the fluorescence reading of the control sample with no enzyme added to the reaction; and “max” stands for the fluorescence reading of the sample with DMSO added as a control.
2.7.3 The date were imported into MS Excel and subjected to curve fitting using XLFit excel add-in version 5.4.0.8 and a fitting formula: Y=Bottom+(Top−Bottom)/(1+(IC50/X)^HillSlope).

The conditions of data set [3]: animal models; cited from earlier work.

What is called IC50 is the concentration that gives 50% inhibition. Read a low IC50 as inhibition by little substance.

SMILES strings stand for the structures.

With `CS(=O)(=O)c1ccc(-c2ccc3c(Oc4cn(C5CC5)nc4C4CCOCC4)ccnc3c2)cc1` [Example 15, 4-((1-cyclopropyl-3-(tetrahydro-2H-pyran-4-yl)-1H-pyrazol-4-yl)oxy)-7-(4-(methylsulfonyl)phenyl) quinoline], the IC50 in data set [1] came to 80 nM; in data set [2], 3.2 nM.
As for `FC(F)(F)c1nnc2n1CCN(c1ccc3c(Oc4cn(C5CC5)nc4C4CCOCC4)ccnc3c1)C2` [Example 3, 4-((1-cyclopropyl-3-(tetrahydro-2H-pyran-4-yl)-1H-pyrazol-4-yl)oxy)-7-(3-(trifluoromethyl)-5,6-dihydro-[1,2,4]triazolo[4,3-a]pyrazin-7(8H)-yl)quinoline], the IC50 was determined as 102 nM in data set [1] and 80 nM in data set [2].
Taken in the same sequence, the figures for `COc1cc2nccc(Oc3cn(C4CC4)nc3C3CCOCC3)c2cc1Nc1cnn(C)c1` [Example 18, 4-((1-cyclopropyl-3-(tetrahydro-2H-pyran-4-yl)-1H-pyrazol-4-yl)oxy)-7-methoxy-N-(1-methyl-1H-pyrazol-4-yl)quinoline-6-amine] were 87 nM and 6 nM.
As to `Cc1cccc(-c2nn3c(c2-c2ccnc4ccc(C(N)=O)cc24)CCC3)n1` [Galunisertib], the “cardiotoxicity (such as bleeding, functional deterioration, and inflammatory injury)” value in data set [3] was “certain cardiotoxicity”.
On to `O=S1(=O)CCN(c2ccc3c(Oc4cn(C5CC5)nc4C4CCOCC4)ccnc3c2)CC1` [Example 4, 4-(4-((1-cyclopropyl-3-(tetrahydro-2H-pyran-4-yl)-1H-pyrazol-4-yl)oxy)quinolin-7-yl)thiomorpholine-1,1-dioxide], for which the figures for the IC50 in data set [1] and in data set [2] were 140 nM and 250 nM, respectively.
As for `CC1(O)CCN(c2ccc3c(Oc4cn(C5CC5)nc4C4CCOCC4)ccnc3c2)CC1` [Example 5, 1-(4-((1-cyclopropyl-3-(tetrahydro-2H-pyran-4-yl)-1H-pyrazol-4-yl)oxy)quinolin-7-yl)-4-methyl piperidin-4-ol], the IC50 in data set [1] was determined as 133 nM; in data set [2] it was 110 nM.
With `COc1cc2nccc(Oc3cn(C4CC4)nc3C3CCOCC3)c2cc1C(N)=O` [Example 17, 4-((1-cyclopropyl-3-(tetrahydro-2H-pyran-4-yl)-1H-pyrazol-4-yl)oxy)-7-methoxyquinoline-6-carboxamide], the IC50 in data set [1] turned out to be 131 nM; in data set [2] it was 66 nM.
For `FC(F)(F)Cn1cc2c(n1)CN(c1ccc3c(Oc4cn(C5CC5)nc4C4CCOCC4)ccnc3c1)C2` [Example 6, 4-((1-cyclopropyl-3-(tetrahydro-2H-pyran-4-yl)-1H-pyrazol-4-yl)oxy)-7-(2-(2,2,2-trifluoroethyl)-2,6-dihydropyrrolo[3,4-c]pyrazole-5(4H)-yl)quinoline], the IC50 was 165 nM in data set [1] and 66 nM in data set [2].
For the compound `CC(C)(O)c1cc(Nc2ccc3c(Oc4cn(C5CC5)nc4C4CCOCC4)ccnc3c2)ccn1` [Example 1, 2-(4-((4-((1-cyclopropyl-3-(tetrahydro-2H-pyran-4-yl)-1H-pyrazol-4-yl)oxy)quinolin-7-yl)amino)pyridin-2-yl)propan-2-ol], the IC50 in data set [1] was 200 nM; in data set [2] it was 120 nM.

Values taken from US20210395235A1, “COMPOUND AS TGF-beta R1 INHIBITOR AND APPLICATION THEREOF” (NANJING SANHOME PHARMACEUTICAL CO., LTD., priority 2018, published 2021).
